The values below come from ChEMBL document CHEMBL1201862, “PubChem BioAssay data set” (2004).

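Each compound was tested at five concentrations against cells in 96-well plates for 48 hours. GI50 marks 50% less growth.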 Active and inactive are the calls of the source. No stated cut-off is given here; in the data, active = GI50 up to about 1.1 µM and inactive = higher. A value given as a limit tells only on which side of the number the result lay.

Among the test systems are OVCAR-5; IGROV-1; T47D; NCI-H522; SK-MEL-28; MCF7; MDA-MB-435; Hs-578T; DU-145; A549; U-251; SK-MEL-5; OVCAR-4; HL-60; SNB-75; MDA-MB-231; HT-29; CCRF-CEM; SN12C; HCT-116.
Holding throughout (test): NCI tumour cell line growth inhibition, 48 h

As to `O=C(Nc1ccc(Cl)cc1)c1cc(S(=O)(=O)Nc2n[nH]c(Nc3ccc4ccccc4c3)n2)c(SSc2cc(Cl)c(C(=O)Nc3ccc(Cl)cc3)cc2S(=O)(=O)Nc2n[nH]c(Nc3ccc4ccccc4c3)n2)cc1Cl`, the GI50 in the assay on OVCAR-5 is 20.5 µM (inactive); in the assay with IGROV-1, 21.7 µM (inactive); in the assay on T47D, 3.2 µM (inactive); in the assay on NCI-H522, 22.6 µM (inactive); with SK-MEL-28, 21.8 µM (inactive); with MCF7 it was 25.8 µM (inactive). Also, the GI50 with MDA-MB-435 is 30.3 µM (inactive); in the assay on Hs-578T, 31.8 µM (inactive); with DU-145, 24.4 µM (inactive); in the assay with A549, 41.7 µM (inactive); in the assay on U-251, 23.7 µM (inactive); in the assay with SK-MEL-5 it was 21.3 µM (inactive). Besides, the GI50 was 28 µM (inactive) in the assay on OVCAR-4; 25.1 µM (inactive) in the assay with HL-60; 23 µM (inactive) in the assay with SNB-75; 18.6 µM (inactive) with MDA-MB-231; 20.6 µM (inactive) in the assay on HT-29; 20.5 µM (inactive) with CCRF-CEM. In addition, the GI50 is 22.5 µM (inactive) in the assay on SN12C and 18.6 µM (inactive) in the assay on HCT-116.
As to `N=C(N)N/N=C/c1c(-c2ccc([N+](=O)[O-])cc2)nc2sc(Cl)cn12`, the GI50 with OVCAR-5 is 1.21 µM (inactive); with IGROV-1 it was 1.78 µM (inactive); in the assay on T47D it was 0.92 µM (active); in the assay with NCI-H522, 1.48 µM (inactive); in the assay on SK-MEL-28 it was 1.69 µM (inactive); with MCF7, 0.52 µM (active). Moreover, the GI50 is 0.902 µM (active) in the assay with MDA-MB-435; 1.03 µM (active) in the assay on Hs-578T; 1.11 µM (active) in the assay on DU-145; 0.593 µM (active) in the assay on A549; 0.418 µM (active) in the assay with U-251; 0.891 µM (active) in the assay on SK-MEL-5. Besides, the GI50 was 0.441 µM (active) in the assay on OVCAR-4; 1.38 µM (inactive) with HL-60; 0.593 µM (active) in the assay on SNB-75; 0.262 µM (active) with MDA-MB-231; 1.18 µM (inactive) in the assay on HT-29; 0.277 µM (active) with CCRF-CEM. The GI50 with SN12C was 1.31 µM (inactive); with HCT-116, 0.223 µM (active).
Consider `CO[C@H]1C[C@](C)(O)Cc2cc3c(c(O)c21)C(=O)c1c(O)cc2c(c1C3=O)O[C@@H]1O[C@@]2(C)[C@H](O)[C@@H](N(C)C)[C@@H]1O`, for which the GI50 is 3.35 µM (inactive) in the assay on OVCAR-5; 2.32 µM (inactive) with IGROV-1; 0.818 µM (active) in the assay on T47D; 1.04 µM (active) in the assay on NCI-H522; 5.82 µM (inactive) in the assay with SK-MEL-28; 0.103 µM (active) in the assay with MCF7. The GI50 is 1.73 µM (inactive) in the assay on MDA-MB-435; 5.25 µM (inactive) in the assay with Hs-578T; 0.536 µM (active) in the assay on DU-145; 0.0908 µM (active) in the assay on A549; 0.368 µM (active) in the assay on U-251; 1.16 µM (inactive) with SK-MEL-5. In addition, the GI50 in the assay with OVCAR-4 was 4.11 µM (inactive); with HL-60, 0.115 µM (active); in the assay on SNB-75 it was 0.653 µM (active); in the assay on MDA-MB-231, 1.82 µM (inactive); in the assay on HT-29 it was 1.94 µM (inactive); in the assay with CCRF-CEM it was 0.151 µM (active). The results for the GI50 in the assay with SN12C and with HCT-116 were 0.499 µM (active) and 0.652 µM (active), respectively.
On to `O=C(NC(Cc1c[nH]c2ccccc12)C(=O)O)/C(=C/c1ccccc1)NC(=O)c1ccccc1` (stereo not given), for which the GI50 was 56.1 µM (inactive) in the assay on OVCAR-5; 32.1 µM (inactive) in the assay with IGROV-1; 36.2 µM (inactive) with T47D; 25.3 µM (inactive) in the assay on NCI-H522; > 88.9 µM (inactive) in the assay on SK-MEL-28; 50 µM (inactive) in the assay with MCF7. In addition, the GI50 was 78.9 µM (inactive) in the assay with MDA-MB-435; 28.5 µM (inactive) with Hs-578T; 79.8 µM (inactive) with DU-145; 38.2 µM (inactive) with A549; 46.8 µM (inactive) in the assay on U-251; 37 µM (inactive) in the assay on SK-MEL-5. The GI50 was 71.1 µM (inactive) with OVCAR-4; 77.6 µM (inactive) in the assay on HL-60; 32.7 µM (inactive) with SNB-75; > 44.6 µM (inactive) with MDA-MB-231; 66.7 µM (inactive) with HT-29; > 66.4 µM (inactive) with CCRF-CEM. In addition, the GI50 was > 100 µM (inactive) in the assay with SN12C and > 80.4 µM (inactive) in the assay with HCT-116.
With `COc1ccc(P2(=S)OCCOP(=S)(c3ccc(OC)cc3)S2)cc1` (stereo not given), the GI50 in the assay on OVCAR-5 was > 100 µM (inactive); in the assay on IGROV-1, 4.03 µM (inactive); in the assay on T47D, 41.8 µM (inactive); in the assay with NCI-H522, 2.2 µM (inactive); with SK-MEL-28, 18.4 µM (inactive); with MCF7, 3.62 µM (inactive). Also, the GI50 was 1.39 µM (inactive) in the assay with MDA-MB-435; 5.48 µM (inactive) in the assay with Hs-578T; 3.74 µM (inactive) in the assay on DU-145; 3.01 µM (inactive) with A549; 4.03 µM (inactive) in the assay with U-251; 3.02 µM (inactive) with SK-MEL-5. In addition, the GI50 was 12.3 µM (inactive) in the assay on OVCAR-4; 2.64 µM (inactive) with HL-60; > 52.7 µM (inactive) in the assay on SNB-75; 3.13 µM (inactive) in the assay on MDA-MB-231; 2.64 µM (inactive) in the assay on HT-29; 2.97 µM (inactive) in the assay with CCRF-CEM. Besides, the GI50 in the assay on SN12C is 2.56 µM (inactive); with HCT-116, 3.28 µM (inactive).
Consider `COc1cc(OCc2ccc3nc(-c4ccccc4)c(Cl)nc3c2)cc(OC)c1OC`, for which the GI50 is 77.1 µM (inactive) in the assay with OVCAR-5; 69.2 µM (inactive) in the assay with IGROV-1; 93.8 µM (inactive) with T47D; 33.3 µM (inactive) in the assay with NCI-H522; > 100 µM (inactive) in the assay on SK-MEL-28; 59.7 µM (inactive) in the assay with MCF7. The GI50 with MDA-MB-435 was > 100 µM (inactive); with Hs-578T, 39.6 µM (inactive); in the assay on DU-145, > 100 µM (inactive); in the assay on A549, > 100 µM (inactive); with U-251, 16.5 µM (inactive); with SK-MEL-5, 20.5 µM (inactive). Further, the GI50 with OVCAR-4 was > 100 µM (inactive); in the assay on HL-60, 24.5 µM (inactive); in the assay on SNB-75 it was 48.4 µM (inactive); in the assay with MDA-MB-231, 39.1 µM (inactive); in the assay with HT-29, > 100 µM (inactive); in the assay with CCRF-CEM it was > 100 µM (inactive). The GI50 was > 100 µM (inactive) in the assay on SN12C and 76.6 µM (inactive) in the assay on HCT-116.
Take `CNc1c2cccc(C)c2nc2c(C(=O)NCCN(C)C)cccc12`: the GI50 with OVCAR-5 is 0.162 µM (active); in the assay on IGROV-1, 0.0483 µM (active); in the assay with T47D, 0.162 µM (active); in the assay on NCI-H522 it was < 0.01 µM (active); in the assay with SK-MEL-28, 0.45 µM (active); with MCF7, < 0.045 µM (active). Further, the GI50 was 0.152 µM (active) in the assay on MDA-MB-435; 0.0957 µM (active) in the assay on Hs-578T; 0.0946 µM (active) with DU-145; 0.034 µM (active) in the assay on A549; 0.149 µM (active) with U-251; 0.18 µM (active) in the assay on SK-MEL-5. Besides, the GI50 in the assay with OVCAR-4 was < 0.01 µM (active); in the assay with HL-60, 0.0847 µM (active); with SNB-75, 0.051 µM (active); in the assay on MDA-MB-231, < 0.0498 µM (active); in the assay with HT-29 it was < 0.0197 µM (active); with CCRF-CEM it was 0.0374 µM (active). Further, the GI50 with SN12C is 0.0282 µM (active); in the assay with HCT-116, 0.0377 µM (active).
Take `O=C1c2cccc([N+](=O)[O-])c2C(=O)N1c1ncn[nH]1`: the GI50 in the assay with OVCAR-5, in the assay on IGROV-1, with T47D, in the assay on NCI-H522, in the assay on SK-MEL-28 and in the assay with MCF7 was > 100 µM (inactive) each time. The GI50 is > 100 µM (inactive) in the assay with MDA-MB-435; 36.4 µM (inactive) in the assay on Hs-578T; > 100 µM (inactive) with DU-145; > 100 µM (inactive) with A549; 38.6 µM (inactive) with U-251; > 100 µM (inactive) in the assay with SK-MEL-5. Besides, the GI50 is > 100 µM (inactive) in the assay with OVCAR-4; > 100 µM (inactive) with HL-60; 23.6 µM (inactive) in the assay on SNB-75; 56.6 µM (inactive) with MDA-MB-231; > 100 µM (inactive) in the assay with HT-29; > 100 µM (inactive) with CCRF-CEM. Further, the GI50 in the assay with SN12C and with HCT-116 was > 100 µM (inactive) each time.
